Molecular target: GST-Bcl-2 (Homo sapiens (Human), UniProt P10415)
Test: Time Resolved-Fluorescence Resonance Energy Transfer (TR-FRET) Bcl-2 binding assay
Details: GST-Bcl-2 1 nM, F-Bak peptide probe 100 nM, Tb-anti-GST antibody 1 nM; Ki by Wang's equation
Outline: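 Ki values derived from TR-FRET displacement of F-Bak peptide from GST-Bcl-2, detected with Tb-labelled anti-GST antibody (ex 340, em 520/495 nm). Compound dilution series started at 50 μM (2× starting concentration); room-temperature incubation 3 hours.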

Chain of GST-Bcl-2 (P10415 whole entry): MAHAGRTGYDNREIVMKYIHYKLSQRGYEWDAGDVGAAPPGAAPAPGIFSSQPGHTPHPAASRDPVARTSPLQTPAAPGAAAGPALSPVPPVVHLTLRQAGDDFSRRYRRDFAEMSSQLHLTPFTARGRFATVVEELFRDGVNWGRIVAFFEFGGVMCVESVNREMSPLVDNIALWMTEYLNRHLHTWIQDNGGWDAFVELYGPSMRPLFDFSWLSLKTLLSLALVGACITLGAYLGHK

Compound | Ki [nM]
CN1CCC(Nc2ccc(S(=O)(=O)NC(=O)c3ccc(N4CCN(CC5=C(c6ccc(Cl)cc6)CC(C)(C)CC5)CC4)cc3Oc3cccc4c3CC(=O)N4)cc2[N+](=O)[O-])CC1 [Example 288, 4-(4-{[2-(4-chlorophenyl)-4,4-dimethylcyclohex-1-en-1-yl]methyl}piperazin-1-yl)-N-({4-[(1-methylpiperidin-4-yl)amino]-3-nitrophenyl}sulfonyl)-2-[(2-oxo-2,3-dihydro-1H-indol-4-yl)oxy]benzamide] | 0.017
CC1(C)CCC(CN2CCN(c3ccc(C(=O)NS(=O)(=O)c4ccc(NCCN5CCOCC5)c([N+](=O)[O-])c4)c(Oc4cccc(Cl)c4)c3)CC2)=C(c2ccc(Cl)cc2)C1 [Example 141, 2-(3-chlorophenoxy)-4-(4-{[2-(4-chlorophenyl)-4,4-dimethylcyclohex-1-en-1-yl]methyl}piperazin-1-yl)-N-({4-[(2-morpholin-4-ylethyl)amino]-3-nitrophenyl}sulfonyl)benzamide] | 0.482
CN(C)CCCNc1ccc(S(=O)(=O)NC(=O)c2ccc(N3CCN(Cc4ccccc4-c4ccc(Cl)cc4)CC3)cc2Oc2ccc(Cl)cc2)cc1[N+](=O)[O-] [Example 15, 4-(4-((4′-chloro-1,1′-biphenyl-2-yl)methyl)piperazin-1-yl)-2-(4-chlorophenoxy)-N-((4-((3-(dimethylamino)propyl)amino)-3-nitrophenyl)sulfonyl)benzamide] | 0.586
CN(C)CCCNc1ccc(S(=O)(=O)NC(=O)c2ccc(N3CCN(CC4=C(c5ccc(Cl)cc5)CC(C)(C)CC4)CC3)cc2Oc2cccc(Cl)c2)cc1[N+](=O)[O-] [Example 142, 2-(3-chlorophenoxy)-4-(4-{[2-(4-chlorophenyl)-4,4-dimethylcyclohex-1-en-1-yl]methyl}piperazin-1-yl)-N-[(4-{[3-(dimethylamino)propyl]amino}-3-nitrophenyl)sulfonyl]benzamide] | 0.071
CC1(C)CCC(CN2CCN(c3ccc(C(=O)NS(=O)(=O)c4ccc(NN5CCOCC5)c([N+](=O)[O-])c4)c(Oc4cc5cc[nH]c5cc4F)c3)CC2)=C(c2ccc(Cl)cc2)C1 [Example 252, 4-(4-{[2-(4-chlorophenyl)-4,4-dimethylcyclohex-1-en-1-yl]methyl}piperazin-1-yl)-2-[(6-fluoro-1H-indol-5-yl)oxy]-N-{[4-(morpholin-4-ylamino)-3-nitrophenyl]sulfonyl}benzamide] | 1.15
CN1CCC(Nc2ccc(S(=O)(=O)NC(=O)c3ccc(N4CCN(CC5=C(c6ccc(Cl)cc6)CCCCC5)CC4)cc3Oc3ccccc3Cl)cc2[N+](=O)[O-])CC1 [Example 56, 2-(2-chlorophenoxy)-4-(4-((2-(4-chlorophenyl)cyclohept-1-en-1-yl)methyl)piperazin-1-yl)-N-((4-((1-methylpiperidin-4-yl)amino)-3-nitrophenyl)sulfonyl)benzamide] | 0.106
O=C(NS(=O)(=O)c1ccc(NCC2CCOCC2)c([N+](=O)[O-])c1)c1ccc(N2CCN(Cc3ccccc3-c3ccc(Cl)cc3)CC2)cc1Oc1ccc(OCCN2CCOCC2)cc1 [Example 94, 4-(4-((4′-chloro-1,1′-biphenyl-2-yl)methyl)piperazin-1-yl)-2-(4-(2-morpholin-4-ylethoxy)phenoxy)-N-((3-nitro-4-((tetrahydro-2H-pyran-4-ylmethyl)amino)phenyl)sulfonyl)benzamide] | 561
CC1(C)CCC(CN2CCN(c3ccc(C(=O)NS(=O)(=O)c4ccc(NCCCN5CCOCC5)c([N+](=O)[O-])c4)c(Oc4cccc(F)c4F)c3)CC2)=C(c2ccc(Cl)cc2)C1 [Example 51, 4-(4-((2-(4-chlorophenyl)-4,4-dimethylcyclohex-1-en-1-yl)methyl)piperazin-1-yl)-2-(2,3-difluorophenoxy)-N-((4-((3-morpholin-4-ylpropyl)amino)-3-nitrophenyl)sulfonyl)benzamide] | 0.066

From US8952157B2, “Apoptosis-inducing agents for the treatment of cancer and immune and autoimmune diseases” (AbbVie Inc., priority 2008, dated 2015)
